Reference: ChEMBL document CHEMBL1201862, “PubChem BioAssay data set” (2004)
The source made the active and inactive calls.

Columns and labels:
[1] = target: Ras and Rab interactor 1/Tyrosine-protein kinase ABL1 (Homo sapiens, UniProt P00519+Q13671); assay type: functional;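 further: biochemical TR-FRET dose-response test measuring inhibition of binding between Rin1 and Abl proteins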
[2] = Shn3 3'UTR reporter inhibitors, dose response, cell-based, Clone20 osteoblasts, firefly luciferase, cherry-picked (AID 624132); assay type: functional;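 further: firefly luciferase luminescence from reporter carrying the Shn3 3'UTR in osteoblasts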
BJ [3] = assay: cytotoxicity toward BJ-TERT fibroblasts, dose response, cell-based, RAS-independent, luminescence (AID 1933); assay type: functional; details: Homo sapiens
BJ [4] = assay: cells; assay type: functional, cell-based; details: Homo sapiens
[5] = control 3'UTR Renilla luciferase suppression, dose response, counter-screen for Shn3 inhibitor project, cell-based, Clone20-Shn3RL, cherry-picked (AID 624133); assay type: functional
[6] = cytotoxicity toward DRD oncogenic fibroblasts, dose response, cell-based, non-viral oncogenic, luminescence (AID 1934); assay type: functional; details: Homo sapiens
BJ [7] = assay: cytotoxicity toward BJ-TERT-LT-ST fibroblasts, dose response, cell-based, RAS-independent, luminescence (AID 1935); assay type: functional; details: Homo sapiens;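 further: BJ fibroblasts immortalized with TERT plus LT and ST oncogenes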
[8] = HepG2 cell cytotoxicity, dose response, cytotoxicity control for Shn3 inhibitor project, CellTiter-Glo, cherry-picked (AID 624134); assay type: functional, cell-based
H9c2 = assay: cells; assay type: functional, cell-based; details: Rattus norvegicus, H9c2, Myocardium;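 further: confirmatory concentration-response retest of ultra-high-throughput screening hits for modulation of myocardial damage; cell death induced by hydrogen peroxide oxidative stress; compound pretreatment for 60 min then peroxide exposure for 2 h; potency is for protecting the cells against peroxide damage rather than for killing them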
[9] = target: T1, Voltage-gated N-type calcium channel alpha-1B subunit/Amyloid beta A4 precursor protein-binding family A member 1 (Homo sapiens, UniProt Q00975+Q02410); assay type: protein assay
T1 sequence (Q00975 whole entry): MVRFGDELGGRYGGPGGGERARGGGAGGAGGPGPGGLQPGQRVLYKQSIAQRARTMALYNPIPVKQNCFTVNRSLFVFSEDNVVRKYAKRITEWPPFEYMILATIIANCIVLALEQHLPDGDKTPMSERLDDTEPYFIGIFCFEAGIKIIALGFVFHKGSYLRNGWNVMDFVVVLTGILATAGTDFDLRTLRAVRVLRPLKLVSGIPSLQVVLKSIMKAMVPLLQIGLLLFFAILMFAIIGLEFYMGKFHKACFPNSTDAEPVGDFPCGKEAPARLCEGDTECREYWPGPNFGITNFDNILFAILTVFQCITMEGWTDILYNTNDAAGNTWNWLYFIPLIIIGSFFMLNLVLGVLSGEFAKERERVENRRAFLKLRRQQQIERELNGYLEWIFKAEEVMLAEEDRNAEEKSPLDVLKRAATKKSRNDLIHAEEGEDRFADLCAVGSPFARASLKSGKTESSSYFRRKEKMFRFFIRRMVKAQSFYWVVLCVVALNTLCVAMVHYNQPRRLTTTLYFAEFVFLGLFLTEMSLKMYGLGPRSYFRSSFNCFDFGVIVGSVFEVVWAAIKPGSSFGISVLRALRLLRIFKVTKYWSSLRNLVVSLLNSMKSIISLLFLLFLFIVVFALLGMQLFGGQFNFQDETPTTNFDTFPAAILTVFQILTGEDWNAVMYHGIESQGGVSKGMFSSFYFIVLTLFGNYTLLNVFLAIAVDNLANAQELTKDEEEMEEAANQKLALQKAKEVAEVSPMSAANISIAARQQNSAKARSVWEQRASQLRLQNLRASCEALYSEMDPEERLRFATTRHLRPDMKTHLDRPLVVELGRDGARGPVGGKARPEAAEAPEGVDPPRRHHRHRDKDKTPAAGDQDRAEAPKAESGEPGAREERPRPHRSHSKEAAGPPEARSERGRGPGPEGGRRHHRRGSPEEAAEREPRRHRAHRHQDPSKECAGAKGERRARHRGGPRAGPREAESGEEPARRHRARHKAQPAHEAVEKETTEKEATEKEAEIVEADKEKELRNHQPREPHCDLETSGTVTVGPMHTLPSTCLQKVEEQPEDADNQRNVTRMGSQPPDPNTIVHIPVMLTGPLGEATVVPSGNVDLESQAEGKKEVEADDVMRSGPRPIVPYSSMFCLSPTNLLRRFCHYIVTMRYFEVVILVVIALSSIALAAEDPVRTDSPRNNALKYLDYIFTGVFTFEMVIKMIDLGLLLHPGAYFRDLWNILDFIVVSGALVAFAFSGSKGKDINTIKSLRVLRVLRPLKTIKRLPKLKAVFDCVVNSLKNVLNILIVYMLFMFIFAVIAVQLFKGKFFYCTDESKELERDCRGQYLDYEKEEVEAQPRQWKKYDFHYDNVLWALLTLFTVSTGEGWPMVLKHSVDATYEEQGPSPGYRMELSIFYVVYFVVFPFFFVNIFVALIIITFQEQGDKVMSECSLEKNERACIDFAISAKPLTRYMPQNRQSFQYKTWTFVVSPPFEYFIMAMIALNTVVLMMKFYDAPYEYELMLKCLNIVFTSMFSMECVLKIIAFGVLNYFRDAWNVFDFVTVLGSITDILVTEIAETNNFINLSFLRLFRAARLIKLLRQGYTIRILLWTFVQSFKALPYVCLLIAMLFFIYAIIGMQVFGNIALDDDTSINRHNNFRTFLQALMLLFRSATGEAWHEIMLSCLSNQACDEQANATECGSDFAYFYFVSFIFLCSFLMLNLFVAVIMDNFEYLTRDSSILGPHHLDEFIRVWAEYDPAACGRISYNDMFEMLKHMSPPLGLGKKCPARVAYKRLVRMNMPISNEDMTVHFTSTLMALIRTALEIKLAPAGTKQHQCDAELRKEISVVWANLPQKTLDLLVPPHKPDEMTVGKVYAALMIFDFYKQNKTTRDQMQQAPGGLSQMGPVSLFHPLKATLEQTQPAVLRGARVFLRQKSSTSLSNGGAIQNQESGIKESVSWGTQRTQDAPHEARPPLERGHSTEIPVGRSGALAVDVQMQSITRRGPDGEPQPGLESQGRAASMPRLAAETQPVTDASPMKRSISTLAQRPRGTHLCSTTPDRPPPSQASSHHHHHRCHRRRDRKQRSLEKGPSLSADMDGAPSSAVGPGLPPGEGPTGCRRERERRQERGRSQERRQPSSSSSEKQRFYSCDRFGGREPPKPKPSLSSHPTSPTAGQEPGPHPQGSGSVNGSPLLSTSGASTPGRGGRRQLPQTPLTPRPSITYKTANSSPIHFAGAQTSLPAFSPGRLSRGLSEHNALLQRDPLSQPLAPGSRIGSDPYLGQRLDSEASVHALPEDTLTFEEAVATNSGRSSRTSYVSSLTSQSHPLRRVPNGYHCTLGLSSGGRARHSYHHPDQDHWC
T1 sequence (Q02410 whole entry): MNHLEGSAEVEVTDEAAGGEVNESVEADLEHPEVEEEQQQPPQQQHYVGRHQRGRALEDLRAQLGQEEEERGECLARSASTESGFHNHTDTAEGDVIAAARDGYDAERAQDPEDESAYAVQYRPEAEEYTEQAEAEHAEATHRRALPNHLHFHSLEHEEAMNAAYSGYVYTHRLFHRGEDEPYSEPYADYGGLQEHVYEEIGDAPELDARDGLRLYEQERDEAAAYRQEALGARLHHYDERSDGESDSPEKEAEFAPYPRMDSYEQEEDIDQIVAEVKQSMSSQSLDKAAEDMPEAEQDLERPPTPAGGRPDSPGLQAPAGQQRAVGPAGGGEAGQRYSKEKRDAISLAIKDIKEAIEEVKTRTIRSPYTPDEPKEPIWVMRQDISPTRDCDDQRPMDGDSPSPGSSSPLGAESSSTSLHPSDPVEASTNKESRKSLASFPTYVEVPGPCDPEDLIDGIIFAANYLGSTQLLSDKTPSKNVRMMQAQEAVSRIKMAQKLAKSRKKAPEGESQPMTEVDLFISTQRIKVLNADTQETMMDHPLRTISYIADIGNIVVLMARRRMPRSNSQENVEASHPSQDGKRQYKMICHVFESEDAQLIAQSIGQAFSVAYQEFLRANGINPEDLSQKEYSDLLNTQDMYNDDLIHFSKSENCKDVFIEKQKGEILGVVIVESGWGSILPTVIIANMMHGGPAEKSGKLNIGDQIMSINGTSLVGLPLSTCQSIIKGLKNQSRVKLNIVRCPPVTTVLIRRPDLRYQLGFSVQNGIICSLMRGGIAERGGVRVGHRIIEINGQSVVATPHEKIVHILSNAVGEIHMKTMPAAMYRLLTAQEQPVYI

[10] = target: T1, Voltage-gated N-type calcium channel alpha-1B subunit/Amyloid beta A4 precursor protein-binding family A member 1; assay type: protein assay; remark: listed apart in the source
Estrogen receptor beta = Estrogen receptor beta (Homo sapiens, UniProt Q92731);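 further: recombinant ER-beta bound to coactivator SRC1 peptide in presence of estradiol agonist; inhibitors block coactivator peptide binding and lower the FRET signal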
Sequence of Estrogen receptor beta (Q92731 whole entry): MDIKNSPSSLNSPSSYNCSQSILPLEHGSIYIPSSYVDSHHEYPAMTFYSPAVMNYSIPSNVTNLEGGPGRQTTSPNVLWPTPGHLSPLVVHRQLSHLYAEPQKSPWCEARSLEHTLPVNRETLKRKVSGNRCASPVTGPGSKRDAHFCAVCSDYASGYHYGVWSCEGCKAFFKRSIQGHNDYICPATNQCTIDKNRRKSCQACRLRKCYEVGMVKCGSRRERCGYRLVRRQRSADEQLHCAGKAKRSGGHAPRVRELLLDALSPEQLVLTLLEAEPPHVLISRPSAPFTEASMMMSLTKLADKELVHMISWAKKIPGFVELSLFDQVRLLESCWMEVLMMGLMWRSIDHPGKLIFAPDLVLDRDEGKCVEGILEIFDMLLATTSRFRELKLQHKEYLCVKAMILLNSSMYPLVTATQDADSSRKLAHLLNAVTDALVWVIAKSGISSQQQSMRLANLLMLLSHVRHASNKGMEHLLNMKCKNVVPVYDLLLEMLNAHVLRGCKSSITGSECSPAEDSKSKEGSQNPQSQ

[11] = target: T2, Calpain-2 catalytic subunit (Sus scrofa, UniProt P43367); assay: pig calpain II inhibitor potency, dose response, biochemical, fluorogenic peptide substrate (AID 1420); assay type: functional
T2 sequence (P43367 whole entry): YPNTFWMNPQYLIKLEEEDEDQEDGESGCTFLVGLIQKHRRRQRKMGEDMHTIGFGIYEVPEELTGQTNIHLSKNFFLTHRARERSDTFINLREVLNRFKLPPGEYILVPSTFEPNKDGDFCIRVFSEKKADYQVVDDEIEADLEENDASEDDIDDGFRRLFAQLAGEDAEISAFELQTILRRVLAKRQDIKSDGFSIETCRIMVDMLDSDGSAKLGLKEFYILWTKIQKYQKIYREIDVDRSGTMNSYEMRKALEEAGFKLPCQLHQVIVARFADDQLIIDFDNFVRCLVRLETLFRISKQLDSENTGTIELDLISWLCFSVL

[12] = target: T3, Methionyl-tRNA synthetase, putative (Trypanosoma brucei brucei, UniProt Q38C91); assay type: functional, Trypanosoma brucei brucei strain 927/4 GUTat10.1
T3 sequence (Q38C91 whole entry): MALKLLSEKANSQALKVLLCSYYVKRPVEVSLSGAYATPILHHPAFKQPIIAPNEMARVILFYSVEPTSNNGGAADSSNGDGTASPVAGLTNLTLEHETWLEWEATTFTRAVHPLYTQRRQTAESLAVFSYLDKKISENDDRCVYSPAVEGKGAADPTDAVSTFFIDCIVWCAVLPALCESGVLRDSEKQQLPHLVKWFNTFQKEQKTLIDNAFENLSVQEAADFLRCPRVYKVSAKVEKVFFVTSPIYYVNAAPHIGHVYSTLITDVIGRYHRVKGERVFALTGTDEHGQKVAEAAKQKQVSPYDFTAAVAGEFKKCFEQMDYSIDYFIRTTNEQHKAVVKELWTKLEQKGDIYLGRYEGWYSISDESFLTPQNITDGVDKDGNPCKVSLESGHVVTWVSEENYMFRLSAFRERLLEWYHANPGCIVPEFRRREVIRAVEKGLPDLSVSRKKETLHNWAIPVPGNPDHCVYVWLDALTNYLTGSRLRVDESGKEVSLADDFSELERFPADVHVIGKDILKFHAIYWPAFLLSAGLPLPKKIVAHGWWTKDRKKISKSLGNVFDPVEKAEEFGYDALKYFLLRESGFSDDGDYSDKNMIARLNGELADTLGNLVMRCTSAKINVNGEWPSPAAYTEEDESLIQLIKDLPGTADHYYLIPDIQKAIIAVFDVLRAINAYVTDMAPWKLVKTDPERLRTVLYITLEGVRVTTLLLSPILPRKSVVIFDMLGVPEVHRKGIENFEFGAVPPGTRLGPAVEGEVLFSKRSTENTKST

[13] = Counterscreen for inhibitors of Trypanosoma brucei methionyl tRNA synthetase (MetRS): Luminescence-based cell-based high throughput dose response assay to identify compounds that are cytotoxic to Jurkat human T lymphocyte cells.; assay type: functional
[14] = target: T3, Methionyl-tRNA synthetase, putative; assay type: functional, Trypanosoma brucei brucei strain 927/4 GUTat10.1; remark: listed apart in the source
[15] = target: T4, Replicative DNA helicase DnaB (Mycobacterium tuberculosis, UniProt P9WMR3); assay: DnaB intein splicing inhibitors, dose response, biochemical, cell-free fluorescence (AID 449749); assay type: functional
T4 sequence (P9WMR3 whole entry): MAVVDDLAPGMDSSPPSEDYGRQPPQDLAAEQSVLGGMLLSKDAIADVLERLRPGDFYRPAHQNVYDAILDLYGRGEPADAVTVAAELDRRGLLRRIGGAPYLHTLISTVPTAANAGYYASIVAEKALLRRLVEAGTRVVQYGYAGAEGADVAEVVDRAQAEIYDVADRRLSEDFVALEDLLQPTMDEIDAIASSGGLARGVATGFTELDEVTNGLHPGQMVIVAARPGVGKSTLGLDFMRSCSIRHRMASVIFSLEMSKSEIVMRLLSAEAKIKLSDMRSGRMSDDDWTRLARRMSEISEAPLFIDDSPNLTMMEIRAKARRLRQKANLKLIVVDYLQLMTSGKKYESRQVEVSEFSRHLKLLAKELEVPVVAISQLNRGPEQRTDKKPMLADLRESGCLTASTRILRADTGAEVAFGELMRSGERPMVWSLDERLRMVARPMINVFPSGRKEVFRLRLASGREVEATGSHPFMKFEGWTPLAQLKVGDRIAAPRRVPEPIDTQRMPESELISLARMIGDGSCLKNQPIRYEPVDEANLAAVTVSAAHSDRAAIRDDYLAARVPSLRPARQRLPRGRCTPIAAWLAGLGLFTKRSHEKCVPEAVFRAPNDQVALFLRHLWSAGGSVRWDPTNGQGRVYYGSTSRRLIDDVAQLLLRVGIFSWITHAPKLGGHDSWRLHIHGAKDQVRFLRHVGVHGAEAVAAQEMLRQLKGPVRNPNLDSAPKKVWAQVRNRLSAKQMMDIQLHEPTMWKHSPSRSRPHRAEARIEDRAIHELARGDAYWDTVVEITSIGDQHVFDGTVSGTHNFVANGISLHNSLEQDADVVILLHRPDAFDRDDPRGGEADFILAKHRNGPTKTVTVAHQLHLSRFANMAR

Protein RecA = target: T5, Protein RecA (Mycobacterium tuberculosis, UniProt P9WHJ3); assay: Fluorescence Cell-Free Homogeneous Dose Retest to Identify Inhibitors of RecA-Intein Splicing Activity. [Related pubchem assays (depositor defined):AID2097, AID2223, AID489010, AID492950]; assay type: functional
T5 sequence (P9WHJ3 whole entry): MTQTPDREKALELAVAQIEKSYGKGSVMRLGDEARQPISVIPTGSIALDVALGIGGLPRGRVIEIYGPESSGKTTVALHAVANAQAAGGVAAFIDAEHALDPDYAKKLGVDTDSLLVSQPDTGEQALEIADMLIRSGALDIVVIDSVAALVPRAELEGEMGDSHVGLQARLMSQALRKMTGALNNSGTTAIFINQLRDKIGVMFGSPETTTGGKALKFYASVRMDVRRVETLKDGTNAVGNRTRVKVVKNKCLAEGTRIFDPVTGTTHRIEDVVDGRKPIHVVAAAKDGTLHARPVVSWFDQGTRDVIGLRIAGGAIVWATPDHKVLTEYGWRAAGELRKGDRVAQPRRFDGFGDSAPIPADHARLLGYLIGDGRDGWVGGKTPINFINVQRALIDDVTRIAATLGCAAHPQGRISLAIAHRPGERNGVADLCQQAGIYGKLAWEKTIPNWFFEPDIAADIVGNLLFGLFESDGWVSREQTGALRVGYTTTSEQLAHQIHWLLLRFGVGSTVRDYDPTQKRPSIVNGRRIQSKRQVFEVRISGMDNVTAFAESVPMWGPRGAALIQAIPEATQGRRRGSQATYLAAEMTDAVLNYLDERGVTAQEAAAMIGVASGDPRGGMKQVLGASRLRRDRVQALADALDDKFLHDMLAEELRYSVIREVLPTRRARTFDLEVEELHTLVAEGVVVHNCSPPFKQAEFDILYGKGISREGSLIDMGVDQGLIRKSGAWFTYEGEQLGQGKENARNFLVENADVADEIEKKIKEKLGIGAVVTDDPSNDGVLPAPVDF

[16] = cytotoxicity in HEK-293T cells, dose response, cytotoxicity control for TCR NF-kB inhibitor project, luminescence, T-cell screen hits (AID 489026); assay type: functional, cell-based;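 further: cells exposed to compound about 14 hours before the viability readout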
Large T antigen = Large T antigen (Simian virus 40, UniProt P03070); assay type: functional, Betapolyomavirus macacae;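 further: Confirmatory-stage PubChem screen for compounds that inhibit SV40 T antigen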
Sequence of Large T antigen (P03070 whole entry): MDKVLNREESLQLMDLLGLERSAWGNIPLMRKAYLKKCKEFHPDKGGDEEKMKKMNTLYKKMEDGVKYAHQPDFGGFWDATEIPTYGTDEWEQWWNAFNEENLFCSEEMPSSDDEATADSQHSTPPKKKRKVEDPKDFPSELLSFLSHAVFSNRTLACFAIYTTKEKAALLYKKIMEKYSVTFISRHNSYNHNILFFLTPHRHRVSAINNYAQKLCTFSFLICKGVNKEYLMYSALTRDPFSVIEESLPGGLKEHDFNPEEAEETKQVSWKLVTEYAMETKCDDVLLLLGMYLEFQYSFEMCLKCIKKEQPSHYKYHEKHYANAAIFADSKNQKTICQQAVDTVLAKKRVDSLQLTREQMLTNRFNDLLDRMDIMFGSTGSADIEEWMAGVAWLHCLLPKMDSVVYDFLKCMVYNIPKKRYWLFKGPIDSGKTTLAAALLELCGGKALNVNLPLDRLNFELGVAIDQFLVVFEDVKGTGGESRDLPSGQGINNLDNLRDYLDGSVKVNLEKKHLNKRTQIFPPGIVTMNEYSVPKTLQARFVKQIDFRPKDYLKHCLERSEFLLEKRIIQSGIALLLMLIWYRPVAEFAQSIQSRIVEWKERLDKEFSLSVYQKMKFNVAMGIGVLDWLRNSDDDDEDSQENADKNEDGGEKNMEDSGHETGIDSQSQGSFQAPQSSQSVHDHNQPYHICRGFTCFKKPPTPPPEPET

SMILES: N#CC12CCCCC1CC1CCCCC1(C#N)N2Cc1cccnc1 (stereo unspecified)
- IC50 [1]: 1.68 µM (active)

SMILES: COc1ccc(/C=C/C(=O)c2ccc(C(=O)/C=C/c3ccc(OC)c(OC)c3)cc2)cc1OC
- AC50 [2]: 5.18 µM (active)
- EC50 (BJ [3]): 7.92 µM (active)
- EC50 (BJ [4]): 27 µM (active)
- AC50 [5]: 25.9 µM (active)
- EC50 [6]: 10.4 µM (active)
- EC50 (BJ [7]): 10.7 µM (inconclusive)
- AC50 [8]: 69.1 µM (active)

SMILES: COc1cc(-c2cc(C(=O)NCc3ccco3)c3ccccc3n2)cc(OC)c1OC
- IC50 (H9c2): 13.2 µM (active)

SMILES: CC(=O)Nc1ccc2c(c1)nc(O)c1ccccc12
- IC50 (H9c2): 34 µM (inactive)

SMILES: OCCNc1ncnc2c1ncn2[C@H]1CN(Cc2ccc(-c3ccccc3)cc2)C[C@@H](CO)O1
- IC50 [1]: 12.6 µM (inactive)

SMILES: O=C(/C=C/c1ccc([N+](=O)[O-])cc1)N(c1ccccn1)C1CCCCC1
- IC50 [9]: 29.1 µM (active)
- IC50 [10]: 10.5 µM (active)

SMILES: Cc1cc(-c2ccc(N3C(=O)CCC3=O)c(C)c2)ccc1N1C(=O)CCC1=O
- IC50 (Estrogen receptor beta): > 50 µM (not active)

SMILES: COc1cccc(-n2nc(-c3ccnn3-c3ccc(F)cc3)c(=O)n(C)c2=O)c1
- IC50 (Estrogen receptor beta): > 50 µM (not active)

SMILES: CCc1nc2ccc(C(=O)Nc3cccc(OCC(=O)N(C)C)c3)cn2c1N(C)Cc1cc2ccccc2s1
- IC50 (H9c2): > 79 µM (inactive)

SMILES: CC(=O)Nc1cccc(NC(=O)c2cc(-c3cccnc3)nc3ccc(Br)cc23)c1
- IC50 (H9c2): 37.9 µM (inactive)

SMILES: O=C(CN=C(S)N(Cc1ccccc1)Cc1ccccc1F)NCc1ccccc1
- IC50 [11]: > 50 µM (not active)

SMILES: OC(c1cc(Cl)cc(Cl)c1)c1nc(-c2ccccc2C(F)(F)F)c[nH]1 (stereo unspecified)
- IC50 [12]: 2.88 µM (active)
- IC50 [13]: 59.4 µM (inactive)
- IC50 [14]: 4.05 µM (active)

SMILES: O=[N+]([O-])c1ccc(Oc2cccc(F)c2)c2ccncc12
- AC50 [15]: > 380 µM (inactive)
- EC50 (Protein RecA): 0.956 µM (active)
- IC50 [11]: 3.5 µM (not active)

SMILES: O=C(CC1SCCNC1=O)Nc1cccc(Cl)c1 (stereo unspecified)
- IC50 [1]: 20.8 µM (inactive)

SMILES: CN(C)C(=O)CSc1nc(O)c2ccccc2n1
- IC50 (H9c2): > 79 µM (inactive)

SMILES: COc1cc(/C=N/n2cnnc2)ccc1OS(=O)(=O)c1ccccc1[N+](=O)[O-]
- IC50 [11]: 15.5 µM (not active)

SMILES: Cc1c([C@H]2[C@@H](CC#N)C2(C)C)c2ccccc2n1C
- IC50 (Estrogen receptor beta): > 50 µM (not active)

SMILES: NS(=O)(=O)c1ccc(CCNC(=O)c2cc(-c3cc(Cl)ccc3O)[nH]n2)cc1
- IC50 [13]: 43.3 µM (inactive)

SMILES: O=C(/C=C/c1ccco1)NC(=S)Nc1cccc(-c2nc3ccccc3o2)c1
- EC50 (BJ [3]): 9.72 µM (active)
- EC50 (BJ [4]): 88.3 µM (active)
- EC50 [6]: 12.1 µM (inconclusive)
- EC50 (BJ [7]): 3.83 µM (active)

SMILES: COc1ccc(OC)c(C2CC(=O)c3c([nH]c(C(=O)OCC4CCCO4)c3C)C2)c1 (stereo unspecified)
- IC50 (H9c2): 21.1 µM (active)

SMILES: CCN(CC)C(=O)C(=O)c1cn(CC(=O)NCc2ccc3c(c2)OCO3)c2ccccc12
- IC50 [12]: 4.83 µM (active)
- IC50 [13]: 83.3 µM (inactive)
- IC50 [14]: 14.4 µM (inactive)

SMILES: O=C(COC(=O)CSc1ccc2ccccc2c1)Nc1ccccc1OC(F)F
- IC50 [11]: 1.8 µM (not active)

SMILES: NS(=O)(=O)c1ccc(CCNC(=O)c2cc(-c3cc(Cl)ccc3O)n[nH]2)cc1
- IC50 [12]: 14.4 µM (inactive)
- IC50 [14]: 119 µM (inactive)

SMILES: COc1cc(NS(=O)(=O)c2ccc(OC)c(C)c2C)c(OC)cc1Cl
- IC50 [16]: > 80 µM (inactive)

SMILES: COc1cccc(NC(=O)NC2(C(F)(F)F)Oc3ccccc3O2)c1
- IC50 (H9c2): > 79 µM (inactive)

SMILES: CCN(CC)C(=O)CSc1nc(Cc2ccccc2)nc2ccccc12
- IC50 [1]: > 73.4 µM (inactive)

SMILES: Cn1sc(=O)c2cc(S(=O)(=O)NC3CC3)ccc21
- IC50 (Large T antigen): 57.3 µM (active)
- IC50 [9]: 9.45 µM (active)
- IC50 [10]: 15.6 µM (active)

SMILES: Cc1ccc(C)c(NC(=O)Cc2nc(CCl)cs2)c1
- IC50 [11]: 1.04 µM (not active)

SMILES: CCc1ccc(C(=O)C(C)OC(=O)Cc2nnc(O)c3ccccc23)cc1 (stereo unspecified)
- EC50 (BJ [3]): 18.2 µM (active)
- EC50 (BJ [4]): 49.9 µM (inconclusive)
- EC50 [6]: 17.9 µM (active)
- EC50 (BJ [7]): > 150 µM (inconclusive)
